# In ChEMBL document CHEMBL1250509, “Rose Bengal analogs and vesicular glutamate transporters (VGLUTs)” (Bioorg Med Chem, 2010):
# System: not listed separately
# Test: Inhibition of VMAT in rat synaptic vesicles assessed as [3H]HT uptake pretreated for 30 mins measured after 10 mins by scintillation spectrophotometer analysis; call rule not given here
row,IC50 [nM],Structure (SMILES)
1,64,O=C(O)c1c(Cl)c(Cl)c(Cl)c(Cl)c1-c1c2cc(I)c(=O)c(I)c-2oc2c(I)c(O)c(I)cc12 [ROSE BENGAL SODIUM]

# System: not listed separately
# Test: Inhibition of VGLUT
Ki [nM],Structure (SMILES),IC50 [nM]
–,N[C@]1(C(=O)O)CC[C@@H](C(=O)O)C1,230000
–,O=C(O)c1cc(C(=O)O)c2cc(-c3ccc(-c4ccccc4)cc3)cc(O)c2n1 [QUINOLEIN DICARBOXYLIC ACID],40000
19,O=C(O)c1c(Cl)c(Cl)c(Cl)c(Cl)c1-c1c2cc(I)c(=O)c(I)c-2oc2c(I)c(O)c(I)cc12 [ROSE BENGAL SODIUM],–

# Target: T1, Vesicular acetylcholine transporter (Rattus norvegicus, UniProt Q62666)
# T1 sequence (Q62666 whole entry): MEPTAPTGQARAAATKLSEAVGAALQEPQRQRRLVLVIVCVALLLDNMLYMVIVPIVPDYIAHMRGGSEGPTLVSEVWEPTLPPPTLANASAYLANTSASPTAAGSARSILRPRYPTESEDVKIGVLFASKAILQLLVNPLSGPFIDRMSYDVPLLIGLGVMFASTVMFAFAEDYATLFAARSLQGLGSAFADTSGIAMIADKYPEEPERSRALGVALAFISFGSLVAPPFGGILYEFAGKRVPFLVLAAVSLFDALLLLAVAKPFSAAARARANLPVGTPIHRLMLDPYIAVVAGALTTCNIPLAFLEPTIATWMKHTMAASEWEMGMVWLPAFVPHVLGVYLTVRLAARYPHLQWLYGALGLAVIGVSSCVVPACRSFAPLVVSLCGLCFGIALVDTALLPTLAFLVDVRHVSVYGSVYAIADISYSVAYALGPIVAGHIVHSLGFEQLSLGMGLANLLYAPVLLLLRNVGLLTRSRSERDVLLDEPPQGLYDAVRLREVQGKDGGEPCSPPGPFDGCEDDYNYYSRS
# Test: Inhibition of VACHT in rat synaptic vesicles assessed as […] 30 mins measured after 10 mins by scintillation spectrophotometer analysis
row,IC50 [nM],Structure (SMILES)
1,9700,O=C(O)c1c(Cl)c(Cl)c(Cl)c(Cl)c1-c1c2cc(I)c(=O)c(I)c-2oc2c(I)c(O)c(I)cc12 [ROSE BENGAL SODIUM]

# System: not listed separately
# Test: Inhibition of VGLUT in rat synaptic vesicles assessed as [3H]glutamate uptake at 2.5 uM pretreated for 30 mins measured after 10 mins by scintillation spectrophotometer analysis
row,IC50,Structure (SMILES)
1,Not Active,O=C(O)c1c(Cl)c(Cl)c(Cl)c(Cl)c1-c1c2ccc(=O)cc-2oc2cc(O)c3ccccc3c12
2,Not Active,O=C(O)c1c(Cl)c(Cl)c(Cl)c(Cl)c1-c1c2c3ccccc3c(=O)cc-2oc2cc(O)c3ccccc3c12
3,Not Active,O=C1OC2(c3ccc(O)cc3Oc3cc(O)ccc32)c2ccccc21 [FLUORESCEIN]

# System: not listed separately
# Test: Inhibition of VGLUT in rat synaptic vesicles assessed as [3H]glutamate uptake pretreated for 30 mins measured after 10 mins by scintillation spectrophotometer analysis
row,Structure (SMILES),IC50 [nM]
1,O=C(O)c1c(Cl)c(Cl)c(Cl)c(Cl)c1-c1c2cc(Br)c(=O)c(Br)c-2oc2c(Br)c(O)c(Br)cc12,51
2,COc1c(I)cc2c(c1I)Oc1c(cc(I)c(OC)c1I)C21OC(=O)c2c(Cl)c(Cl)c(Cl)c(Cl)c21,8820
3,O=C(O)c1c(Cl)c(Cl)c(Cl)c(Cl)c1-c1c2ccc(=O)cc-2oc2cc(O)ccc12,15000
4,O=C(O)c1ccccc1-c1c2cc(Cl)c(=O)cc-2oc2cc(O)c(Cl)cc12,> 64000
5,CCOC(=O)c1ccccc1-c1c2cc(Br)c(=O)c(Br)c-2oc2c(Br)c(O)c(Br)cc12,65
6,COC(=O)c1ccccc1-c1c2cc(Br)c(=O)c(Br)c-2oc2c(Br)c(O)c(Br)cc12,117
7,COC(=O)c1ccccc1-c1c2cc([N+](=O)[O-])c(=O)c(Br)c-2oc2c(Br)c(O)c([N+](=O)[O-])cc12,238
8,O=C(O)c1ccccc1-c1c2ccc(=O)c(I)c-2oc2c(I)c(O)ccc12,1060
9,O=C(O)c1ccccc1-c1c2cc(Br)c(=O)c(Br)c-2oc2c(Br)c(O)c(Br)cc12,406
10,O=C(O)c1ccccc1-c1c2cc([N+](=O)[O-])c(=O)c(Br)c-2oc2c(Br)c(O)c([N+](=O)[O-])cc12 [EOSIN B],2440
11,O=c1ccc2c(-c3ccccc3S(=O)(=O)O)c3ccc(O)c(O)c3oc-2c1O [PYROGALLOL RED],> 32000

# Continued, values first:
row,IC50 [nM],Structure (SMILES)
1,41,O=C(O)c1cc(Cl)c(Cl)cc1-c1c2cc(I)c(=O)c(I)c-2oc2c(I)c(O)c(I)cc12
2,7800,O=C(O)c1c(O)cccc1-c1c2cc(I)c(=O)c(I)c-2oc2c(I)c(O)c(I)cc12
3,27,O=C(O)c1c(Cl)ccc(Cl)c1-c1c2cc(I)c(=O)c(I)c-2oc2c(I)c(O)c(I)cc12
4,44,COC(=O)c1c(Cl)c(Cl)c(Cl)c(Cl)c1-c1c2cc(I)c(=O)c(I)c-2oc2c(I)c(O)c(I)cc12
5,65,O=C(OCc1ccccc1)c1c(Cl)c(Cl)c(Cl)c(Cl)c1-c1c2cc(I)c(=O)c(I)c-2oc2c(I)c(O)c(I)cc12
6,74,O=C(O)c1c(Br)c(Br)c(Br)c(Br)c1-c1c2cc(I)c(=O)c(I)c-2oc2c(I)c(O)c(I)cc12
7,102,O=C(O)c1c(F)c(F)c(F)c(F)c1-c1c2cc(I)c(=O)c(I)c-2oc2c(I)c(O)c(I)cc12
8,192,CCOC(=O)c1c(Cl)c(Cl)c(Cl)c(Cl)c1-c1c2cc(I)c(=O)c(I)c-2oc2c(I)c(O)c(I)cc12
9,531,Cc1c2oc3c(C)c(O)c(I)cc3c(-c3ccccc3C(=O)O)c-2cc(I)c1=O
10,689,N#CSc1ccc(C(=O)O)c(-c2c3cc(I)c(=O)c(I)c-3oc3c(I)c(O)c(I)cc23)c1
11,2200,O=C(O)CCc1c2cc(I)c(=O)c(I)c-2oc2c(I)c(O)c(I)cc12
12,6690,O=C(O)c1cccc([N+](=O)[O-])c1-c1c2cc(I)c(=O)c(I)c-2oc2c(I)c(O)c(I)cc12
13,36,O=C(O)c1ccccc1-c1c2cc(I)c(=O)c(I)c-2oc2c(I)c(O)c(I)cc12
14,68,O=c1c(I)cc2c(-c3cc(Cl)c(Cl)c(Cl)c3Cl)c3cc(I)c(O)c(I)c3oc-2c1I [DESCARBOXY RB]
15,19,O=C(O)c1c(Cl)c(Cl)c(Cl)c(Cl)c1-c1c2cc(I)c(=O)c(I)c-2oc2c(I)c(O)c(I)cc12 [ROSE BENGAL SODIUM]
